Laboratory results reported in ChEMBL document CHEMBL3046577, “Stereocontrolled synthesis of spirosuccinimide derivative of (+)-hydantocidin” (1995).
The source made the active and inactive calls. The calls are words filed in the database; no cut-off is given here.

Assays:
Format in all cases: functional
Eleusine indica = experiment: Herbicidal activity against Eleusine indica at 1000 ppm relative to control
Ambrosia artemisiifolia = experiment: Herbicidal activity against Ambrosia artemisiifolia (ragweed) at 1000 ppm relative to control
Xanthium strumarium = experiment: Herbicidal activity against Xanthium strumarium (cocklebur) at 1000 ppm relative to control

Row | SMILES | Activity (Eleusine indica) | Activity (Ambrosia artemisiifolia) | Activity (Xanthium strumarium)
1 | O=C1NC(=O)[C@@]2(N1)O[C@H](CO)[C@@H](O)[C@H]2O | Active | Active | Active
2 | O=C1C[C@@]2(O[C@H](CO)[C@@H](O)[C@H]2O)C(=O)N1 | 70% | 90% | 90%
